This is an account of results in article PMC4193543 (ChemMedChem, 2012).

The assay deals with BK β1 subunit (Rattus norvegicus, UniProt P97678). In words: inside-out patch clamp, single-channel NPo in excised oocyte patches. In kind it is cell-based.
Chain of BK β1 subunit (P97678 whole entry): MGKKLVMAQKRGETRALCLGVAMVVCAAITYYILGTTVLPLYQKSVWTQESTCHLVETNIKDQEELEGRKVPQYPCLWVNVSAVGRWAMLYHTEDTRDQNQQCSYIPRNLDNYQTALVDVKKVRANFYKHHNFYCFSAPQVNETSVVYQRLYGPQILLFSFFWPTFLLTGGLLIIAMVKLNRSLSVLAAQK
Chain of BK β1 subunit (Q62976 whole entry partner): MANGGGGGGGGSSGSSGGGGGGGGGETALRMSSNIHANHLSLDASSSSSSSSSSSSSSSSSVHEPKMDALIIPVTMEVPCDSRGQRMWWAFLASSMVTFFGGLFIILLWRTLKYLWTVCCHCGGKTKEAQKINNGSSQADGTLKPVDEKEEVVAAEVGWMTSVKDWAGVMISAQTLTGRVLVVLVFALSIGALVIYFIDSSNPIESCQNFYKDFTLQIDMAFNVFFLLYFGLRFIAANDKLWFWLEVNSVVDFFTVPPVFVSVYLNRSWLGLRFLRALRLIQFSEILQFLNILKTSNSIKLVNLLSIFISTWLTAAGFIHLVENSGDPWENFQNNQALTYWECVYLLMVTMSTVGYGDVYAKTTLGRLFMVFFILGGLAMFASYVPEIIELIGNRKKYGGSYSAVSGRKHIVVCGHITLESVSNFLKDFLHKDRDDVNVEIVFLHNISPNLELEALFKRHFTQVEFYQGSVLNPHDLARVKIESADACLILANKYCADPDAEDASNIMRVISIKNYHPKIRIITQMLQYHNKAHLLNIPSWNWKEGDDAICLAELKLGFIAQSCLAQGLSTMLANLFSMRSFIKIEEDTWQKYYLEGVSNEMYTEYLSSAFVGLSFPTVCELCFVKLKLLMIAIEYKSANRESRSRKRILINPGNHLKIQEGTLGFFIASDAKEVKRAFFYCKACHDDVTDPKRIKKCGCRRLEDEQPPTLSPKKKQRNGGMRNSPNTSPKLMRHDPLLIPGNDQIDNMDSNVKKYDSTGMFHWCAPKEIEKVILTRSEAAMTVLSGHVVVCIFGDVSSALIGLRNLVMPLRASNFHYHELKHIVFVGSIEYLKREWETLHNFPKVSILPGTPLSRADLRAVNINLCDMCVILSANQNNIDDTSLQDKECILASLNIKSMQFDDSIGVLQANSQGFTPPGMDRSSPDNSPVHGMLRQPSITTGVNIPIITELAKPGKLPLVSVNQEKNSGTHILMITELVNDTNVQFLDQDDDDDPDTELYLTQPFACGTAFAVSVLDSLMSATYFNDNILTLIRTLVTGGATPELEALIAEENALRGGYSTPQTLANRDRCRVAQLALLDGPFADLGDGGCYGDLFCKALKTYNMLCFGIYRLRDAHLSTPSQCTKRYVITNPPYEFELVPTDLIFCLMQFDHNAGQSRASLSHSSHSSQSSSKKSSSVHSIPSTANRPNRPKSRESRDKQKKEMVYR
`C[C@H](CCCC(=O)O)[C@H]1CC[C@H]2[C@@H]3CC[C@@H]4C[C@H](O)CC[C@]4(C)[C@H]3CC[C@]12C` [compound 15, higher homologe acid (15, carboxyl group at C25)] came in with an EC50 of 42.8 µM.
Molecule `C[C@H](CCC#N)[C@H]1CC[C@H]2[C@@H]3CC[C@@H]4C[C@H](O)CC[C@]4(C)[C@H]3CC[C@]12C` [compound 11, 3α-hydroxy-23-cyano analog, de-acetylated derivative (11)] registered an EC50 of 46.4 µM.
The figure for `C[C@H](CCC(=O)O)[C@H]1CC[C@H]2[C@@H]3CC[C@@H]4C[C@H](O)CC[C@]4(C)[C@H]3CC[C@]12C` [LCA, 5β-cholanic acid-3α-ol] is 44 µM.
